Source: the supplement of paper PMC10307832

Tests used:
Experiment in all cases: relative viability (nuclei count vs DMSO), 5 days (fraction); higher = more cells survive
SK-LU-1 = system: SK-LU-1
Summary of the method: (§1)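 Dosing by pin tool came one day after lung cancer cell lines were seeded in 1536-well plates, using either one drug or a fixed anchor-drug dose plus five library-drug doses (not always all listed) in √10 steps. After 5 days, nuclei were counted on 4× images. Relative viability is treated-well nuclei count divided by vehicle-well nuclei count, and values are medians of duplicate plates.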

LU99A = system: LU99A
Summary of the method: as §1

NCI-H1975 = system: NCI-H1975
Summary of the method: as §1

HCC-366 = system: HCC-366
Summary of the method: as §1

NCI-H1944 = system: NCI-H1944
Summary of the method: as §1

NCI-H1793 = system: NCI-H1793
Summary of the method: as §1

COR-L 105 = system: COR-L 105
Summary of the method: as §1

EPLC-272H = system: EPLC-272H
Summary of the method: as §1

NCI-H1792 = system: NCI-H1792
Summary of the method: as §1

UMC-11 = system: UMC-11
Summary of the method: as §1

NCI-H1915 = system: NCI-H1915
Summary of the method: as §1

`COc1cc(N2CCC(C(N)=O)CC2)ccc1Nc1nc(N)c(Cl)c(Nc2ccccc2S(=O)(=O)C(C)C)n1` [HG-5-88-01] + CS(=O)(=O)N1CCN(Cc2cc3nc(-c4cccc5[nH]ncc45)nc(N4CCOCC4)c3s2)CC1 [Pictilisib] (partner 1 µM) showed a relative viability (SK-LU-1; first compound 0.04 µM) of 0.539, a relative viability (SK-LU-1; first compound 0.1265 µM) of 0.572 and a relative viability (SK-LU-1; first compound 0.4 µM) of 0.539. For the same compound, the relative viability (SK-LU-1; first compound 1.265 µM) was 0.594, the relative viability (SK-LU-1; first compound 4 µM) was 0.6 and the relative viability (LU99A; first compound 0.04 µM) was 0.31. For the same compound, the relative viability (LU99A; first compound 0.1265 µM) was 0.315, the relative viability (LU99A; first compound 0.4 µM) was 0.303 and the relative viability (LU99A; first compound 1.265 µM) was 0.318. The relative viability (LU99A; first compound 4 µM) was 0.215, the relative viability (NCI-H1975; first compound 0.04 µM) was 0.32 and the relative viability (NCI-H1975; first compound 0.1265 µM) was 0.277. The relative viability (NCI-H1975; first compound 0.4 µM) was 0.244, the relative viability (NCI-H1975; first compound 1.265 µM) was 0.191 and the relative viability (NCI-H1975; first compound 4 µM) was 0.17. It also gave a relative viability (HCC-366; first compound 0.04 µM) of 0.101, a relative viability (HCC-366; first compound 0.1265 µM) of 0.16 and a relative viability (HCC-366; first compound 0.4 µM) of 0.0782. The relative viability (HCC-366; first compound 1.265 µM) was 0.157, the relative viability (HCC-366; first compound 4 µM) was 0.212 and the relative viability (NCI-H1944; first compound 0.04 µM) was 0.319. For the same compound, the relative viability (NCI-H1944; first compound 0.1265 µM) was 0.341, the relative viability (NCI-H1944; first compound 0.4 µM) was 0.336 and the relative viability (NCI-H1944; first compound 1.265 µM) was 0.334. It also gave a relative viability (NCI-H1944; first compound 4 µM) of 0.352, a relative viability (NCI-H1793; first compound 0.1265 µM) of 0.336 and a relative viability (NCI-H1793; first compound 0.4 µM) of 0.3. For the same compound, the relative viability (NCI-H1793; first compound 1.265 µM) was 0.426, the relative viability (NCI-H1793; first compound 4 µM) was 0.308 and the relative viability (COR-L 105; first compound 0.04 µM) was 0.348. The relative viability (COR-L 105; first compound 0.1265 µM) was 0.537, the relative viability (COR-L 105; first compound 0.4 µM) was 0.336 and the relative viability (COR-L 105; first compound 1.265 µM) was 0.309. For the same compound, the relative viability (COR-L 105; first compound 4 µM) was 0.342, the relative viability (EPLC-272H; first compound 0.04 µM) was 0.302 and the relative viability (EPLC-272H; first compound 0.1265 µM) was 0.262. The relative viability (EPLC-272H; first compound 0.4 µM) was 0.29, the relative viability (EPLC-272H; first compound 1.265 µM) was 0.219 and the relative viability (EPLC-272H; first compound 4 µM) was 0.0916. The relative viability (NCI-H1792; first compound 0.04 µM) was 0.372, the relative viability (NCI-H1792; first compound 0.1265 µM) was 0.272 and the relative viability (NCI-H1792; first compound 0.4 µM) was 0.313. It also gave a relative viability (NCI-H1792; first compound 1.265 µM) of 0.253, a relative viability (NCI-H1792; first compound 4 µM) of 0.297 and a relative viability (UMC-11; first compound 0.04 µM) of 0.506. It also gave a relative viability (UMC-11; first compound 0.1265 µM) of 0.937, a relative viability (UMC-11; first compound 0.4 µM) of 0.692 and a relative viability (UMC-11; first compound 1.265 µM) of 0.815. The relative viability (UMC-11; first compound 4 µM) was 0.49, the relative viability (NCI-H1915; first compound 0.04 µM) was 0.92 and the relative viability (NCI-H1915; first compound 0.1265 µM) was 0.973. It also gave a relative viability (NCI-H1915; first compound 0.4 µM) of 0.95, a relative viability (NCI-H1915; first compound 1.265 µM) of 1.13 and a relative viability (NCI-H1915; first compound 4 µM) of 0.806.
